Laboratory results taken from US4999374A, “Veterinary treatment” (priority 1987, dated 1991).

Columns and labels:
[1] = test system: T. hyodysenteriae (strain "P18a"); experiment: Efficacy of M139603 in pigs, natural infection (Example 6, Table 6); type: in vivo; settings: for Mortality (+ culls): 38 days, 6 pigs; for Number diarrhoea/dysentery days / Percent diarrhoea/dysentery days: pi 1 to 38; for Average weight at end: start 10.95 kg
Experimental: (§1) In this studY two groups (Gp.1 and Gp.2) of pigs, six per group, were experimentally infected with a pathogenic strain of T. hyodysenteriae (P18a, IRAD(Institute for Animal Health), Compton, Berks, U.K.) by oro-gastric inoculation of 50 ml of a culture suspension (1×10^7cfu/ml) of the organism into each animal. From post-infection day (PID) to PID 35 the animals in Gp. 1 were offered ad lib a feed comprising "Kwikwean" meal (Rank, Hovis, McDougall Research Ltd; containing no antibiotics) incorporated with M139603 at 25 ppm. Gp.2 remained on unmedicated feed throughout the trial. Drug efficacy was measured primarily on the basis of the number of diarrhoea or dysentery days in relation to pig-days within a group and on the average daily weight gain per pig, in each group over the period of the trial. The daily gain was calculated by dividing group gain at end of trial (PID 35) by the total number of pig-days from PID 1 to PID 35. […] In the experiment the pigs were exposed to high infective doses of the organism a day before the introduction of the drug. Under normal circumstances preventive dose-regimes are applied on animals at risk and not on those already infected.
(§2) In this study, eighteen pigs were allocated to three equal groups (Gp.1-3). Feed incorporated with the drug at 25 or 15 ppm was offered to Gp.1 and 2, respectively, on thirty-eight consecutive days commencing six hours pre-infection. Gp.3 remained on unmedicated feed throughout the trial. The pigs were infected with T. hyodysenteriae (strain "P18a") using methods and materials similar to those applied in Example 5. However, seven days following this exposure (post-infection day 7), over a period of seven consecutive days, the pigs in Gp. 1 and 2 were allowed to co-mingle for about two hours each day with some dysenteric "seeder pigs" in a nearby pen. Drug efficacy, as in Example 6, was assessed primarily on the basis of the total number of diarrhoea/dysentery days per group and on the basis of average daily weight gain per pig per group. The results are indicative of the good efficacy of M139603 even at a level as low as 15 ppm feed in preventing swine dysentery. At this dose-level, the daily drug-intake is unlikely to be more than 0.9 mg/kg/body-weight, if daily feed is calculated at 6% of a pig's body-weight.

[2] = test system: T. hyodysenteriae (P18a); experiment: Efficacy of M139603 in pigs at low doses (Example 7, Table 7); type: in vivo; parameters: Group weight / Ave. daily weight-gain: unit not given here; settings: for Mortality (+ culls): 42 days, 6 pigs
Experimental: as §1, §2
In this experiment twenty-four pigs were split into four equal groups (Gp. 1-4). Gp. 1 and 2 were offered the drug at 15 or 10 ppm feed on forty-two consecutive days, commencing six hours pre-infection. Gp. 3 (infected) and Gp. 4 (uninfected) remained on unmedicated feed throughout. The infection procedures with T. hyodysenteriae (P18a) were similar to those applied above. Only three groups, Gp. 1, 2 and 3 were infected. Gp. 4 remained uninfected in a well-isolated pen throughout the trial period. Three days following the initial exposure to the infection (post-infection day 3), over a period of five continuous days, the pigs in Gp. 1, 2 and 3 were allowed to co-mingle with dysenteric "seeder pigs" housed in a separate pen. Drug efficacy was measured using the criteria applied in the Examples 5 and 6. […] Thereafter, the differences narrowed, primarily due to the placement of Gp. 3 on tiamulin to prevent further weight losses, and consequent deaths. Despite the number of diarrhoea days observed for Gp. 1 (6.8%) and Gp.

SMILES: CO[C@@H](C)[C@H]1C[C@H](C)[C@H]([C@@H](C)/C=C/[C@@H]2CC[C@@H](C)[C@H](/C(=C/[C@H]3CCC[C@@H](C)[C@@H]3[C@H](C)C(=O)C3=C(O)COC3=O)CO)O2)O1 [Analogue M139603, tetronasin]
- Average daily weight-gain ([1]; 15 ppm feed): 0.72 kg
- Efficacy in preventing swine dysentery ([1]; 15 ppm feed): good efficacy
- Mortality (+ culls) ([1]; 15 ppm feed): 0
- Number diarrhoea/dysentery days ([1]; 15 ppm feed): 0 days
- Percent diarrhoea/dysentery days ([1]; 15 ppm feed): 0%
- Average weight at end ([1]; 15 ppm feed): 41.0 kg
- Group weight at end ([1]; 15 ppm feed, start 65.5 kg): 246.5 kg
- Animals developing a transient dysentery ([1]; 25 ppm feed): one of the six animals
- Average daily weight-gain ([1]; 25 ppm feed): 0.72 kg
- Mortality (+ culls) ([1]; 25 ppm feed): 0
- Number diarrhoea/dysentery days ([1]; 25 ppm feed): 14 days
- Percent diarrhoea/dysentery days ([1]; 25 ppm feed): 6.1%
- Average weight at end ([1]; 25 ppm feed): 41.0 kg
- Group weight at end ([1]; 25 ppm feed, start 65.7 kg): 246.5 kg
- Ave. daily weight-gain ([2]; 10 ppm feed group, post-infection day 44 to 57, inclusive (after withdrawal)): 0.65
- Mortality (+ culls) ([2]; 10 ppm feed): 0
- Ave. daily weight-gain ([2]; 10 ppm feed, day 4 pre-infection to day 22 post-infection): 0.59
- Percent diarrhoea/dysentery days ([2]; 10 ppm feed, post-infection day 1 to 21): 4.8%
- No. diarrhoea/dysentery days ([2]; 10 ppm feed, post-infection day 1 to 21 (126 pig-days)): 6 days
- Percent diarrhoea/dysentery days ([2]; 10 ppm feed, post-infection day 1 to 42): 11.9%
- No. diarrhoea/dysentery days ([2]; 10 ppm feed, post-infection day 1 to 42 (252 pig-days)): 30 days
- Group weight ([2]; 10 ppm feed, post-infection day 21, start 66.0): 161.0
- Ave. daily weight-gain ([2]; 10 ppm feed, post-infection day 23 to 43, inclusive): 0.83
- Group weight ([2]; 10 ppm feed, post-infection day 43 (1 day from withdrawal of medication)): 265.0
- Average daily weight-gain vs uninfected, unmedicated group ([2]; 15 or 10 ppm feed): exceeded that recorded for pigs in the uninfected, unmedicated group
- Weight gain vs unmedicated, infected group ([2]; 15 or 10 ppm feed, by post-infection day 21): Significant weight gain differences
- Ave. daily weight-gain ([2]; 15 ppm feed group, post-infection day 44 to 57, inclusive (after withdrawal)): 0.86
- Mortality (+ culls) ([2]; 15 ppm feed): 0
- Ave. daily weight-gain ([2]; 15 ppm feed, day 4 pre-infection to day 22 post-infection): 0.56
- Percent diarrhoea/dysentery days ([2]; 15 ppm feed, post-infection day 1 to 21): 4%
- No. diarrhoea/dysentery days ([2]; 15 ppm feed, post-infection day 1 to 21 (126 pig-days)): 5 days
- Percent diarrhoea/dysentery days ([2]; 15 ppm feed, post-infection day 1 to 42): 6.8%
- No. diarrhoea/dysentery days ([2]; 15 ppm feed, post-infection day 1 to 42 (252 pig-days)): 17 days
- Group weight ([2]; 15 ppm feed, post-infection day 21, start 63.7): 153.7
- Ave. daily weight-gain ([2]; 15 ppm feed, post-infection day 23 to 43, inclusive): 0.81
- Group weight ([2]; 15 ppm feed, post-infection day 43 (1 day from withdrawal of medication)): 225.5
- Group weight ([2]; 15 ppm feed, post-infection day 57 (15 days from withdrawal of medication)): 327.5
- Feed level found to be effective (lowest) ([2]; in the feed): 10 ppm
